Assay: Storage stability: degradation of IMS in OD formulations, determined by HPLC
Format: physicochemical
Details: for Degradation of IMS after 1 week at 54° C. / Degradation of IMS after 4 weeks at 40° C. / Degradation of IMS after 8 weeks at 40° C. / Degradation of IMS after 12 weeks at 35° C. / Degradation of IMS after 2 weeks at 54° C. / Degradation of IMS after 8 weeks at 40° C0: Emulsogen EL 400 10%
Text: The sodium salt of iodosulfuron-methyl (iodosulfuron-methyl-sodium, IMS) is finely dispersed by means of a rotor-stator mixer together with a customary emulsifier such as Emulsogen EL 400® (castor oil polyglycol ether from Clariant AG) in the solvents customary for OD formulations (oil dispersion formulations), such as rapeseed oil methyl ester or Solvesso 200 ND® (aromatics mixture from Exxon AG). Further formulation auxiliaries such as the thickener Bentone 38® (sheet silicate from Elementis AG) or the polymers Ligalub PEG 400 MO® (polyethylene glycol monooleate from Peter Greven GmbH), Ligalub 12 GE® (glyceryl dioleate from Peter Greven GmbH) or Ligalub 71 KE® (complex ester from Peter Greven GmbH) can, inter alia, also be added to the system. Furthermore, lithium hydroxystearate (lithium soap of a 12-hydroxystearic acid) was also additionally added for comparison purposes to each mixture.
Tables 1 to 9 show the compositions of the tested OD formulations (% data in % by weight).
The degradation of the IMS is determined here by means of HPLC.
The degradation is expressed here in tables 1 to 9 in—xx %. This means that after the relevant period xx % of the originally present IMS was already degraded.

[1] = Table 1 OD formulation: IMS 0.5%, Lithium hydroxystearate 0%, Bentone 38 1.2%, Rapeseed oil methyl ester 88.3%
[2] = Table 1 OD formulation: IMS 0.5%, Lithium hydroxystearate 1%, Bentone 38 1.2%, Rapeseed oil methyl ester 87.3%
[3] = Table 2 OD formulation: IMS 0.5%, Lithium hydroxystearate 0%, Solvesso 200 ND 89.5%
[4] = Table 2 OD formulation: IMS 0.5%, Lithium hydroxystearate 0.5%, Solvesso 200 ND 89%
[5] = Table 2 OD formulation: IMS 0.5%, Lithium hydroxystearate 1%, Solvesso 200 ND 88.5%
[6] = Table 2 OD formulation: IMS 0.5%, Lithium hydroxystearate 5%, Solvesso 200 ND 84.5%
[7] = Table 3 OD formulation: IMS 2%, Lithium hydroxystearate 0%, Solvesso 200 ND 88%
[8] = Table 3 OD formulation: IMS 2%, Lithium hydroxystearate 1%, Solvesso 200 ND 87%
[9] = Table 4 OD formulation: IMS 0.5%, Lithium hydroxystearate 0%, Ligalub PEG 400 MO 15%, Solvesso 200 ND 74.5%
[10] = Table 4 OD formulation: IMS 0.5%, Lithium hydroxystearate 1%, Ligalub PEG 400 MO 15%, Solvesso 200 ND 73.5%
[11] = Table 5 OD formulation: IMS 0.5%, Lithium hydroxystearate 0%, Ligalub PEG 400 MO 30%, Bentone 38 1.2%, Rapeseed oil methyl ester 58.3%
[12] = Table 5 OD formulation: IMS 0.5%, Lithium hydroxystearate 1%, Ligalub PEG 400 MO 30%, Bentone 38 1.2%, Rapeseed oil methyl ester 57.3%
[13] = Table 6 OD formulation: IMS 2%, Lithium hydroxystearate 0%, Ligalub PEG 400 MO 15%, Solvesso 200 ND 73%
[14] = Table 6 OD formulation: IMS 2%, Lithium hydroxystearate 1%, Ligalub PEG 400 MO 15%, Solvesso 200 ND 72%
[15] = Table 7 OD formulation: IMS 0.5%, Lithium hydroxystearate 0%, Ligalub 12 GE 30%, Bentone 38 1.2%, Rapeseed oil methyl ester 58.3%
[16] = Table 7 OD formulation: IMS 0.5%, Lithium hydroxystearate 1%, Ligalub 12 GE 30%, Bentone 38 1.2%, Rapeseed oil methyl ester 57.3%
[17] = Table 8 OD formulation: IMS 0.5%, Lithium hydroxystearate 0%, Ligalub 71 KE 15%, Solvesso 200 ND 74.5%
[18] = Table 8 OD formulation: IMS 0.5%, Lithium hydroxystearate 1%, Ligalub 71 KE 15%, Solvesso 200 ND 73.5%
[19] = Table 9 OD formulation: IMS 0.5%, Lithium hydroxystearate 0%, Ligalub 71 KE 30%, Bentone 38 1.2%, Rapeseed oil methyl ester 58.3%
[20] = Table 9 OD formulation: IMS 0.5%, Lithium hydroxystearate 1%, Ligalub 71 KE 30%, Bentone 38 1.2%, Rapeseed oil methyl ester 57.3%

## CCCCCCC(O)CCCCCCCCCCC(=O)[O-].[Li+] (stereo not drawn) [lithium hydroxystearate]
Hydroxystearate as thickener in oil-based liquid formulations of iodosulfuron-methyl sodium salt
  stabilizing effect on the sodium salt of iodosulfuron: particularly significantly stabilizing effect

## COC(=O)c1ccc(I)cc1S(=O)(=O)[N-]C(=O)Nc1nc(C)nc(OC)n1.[Na+] [IMS, iodosulfuron-methyl sodium salt]
[1]
  Degradation of IMS after 1 week at 54° C.: −78.3%
  Degradation of IMS after 4 weeks at 40° C.: −46.4%
  Degradation of IMS after 8 weeks at 40° C.: −69.7%
  Degradation of IMS after 12 weeks at 35° C.: −57.8%
[2]
  Degradation of IMS after 1 week at 54° C.: −23.9%
  Degradation of IMS after 4 weeks at 40° C.: −5%
  Degradation of IMS after 8 weeks at 40° C.: −8.7%
  Degradation of IMS after 12 weeks at 35° C.: −6.3%
[3]
  Degradation of IMS after 2 weeks at 54° C.: −87.9%
  Degradation of IMS after 4 weeks at 40° C.: −29.9%
[4]
  Degradation of IMS after 2 weeks at 54° C.: −32.2%
  Degradation of IMS after 4 weeks at 40° C.: −7.4%
[5]
  Degradation of IMS after 2 weeks at 54° C.: −28%
  Degradation of IMS after 4 weeks at 40° C.: −3.4%
[6]
  Degradation of IMS after 2 weeks at 54° C.: −14.7%
  Degradation of IMS after 4 weeks at 40° C.: −3.6%
[7]
  Degradation of IMS after 2 weeks at 54° C.: −34.6%
  Degradation of IMS after 4 weeks at 40° C.: −5.2%
[8]
  Degradation of IMS after 2 weeks at 54° C.: −13.1%
  Degradation of IMS after 4 weeks at 40° C.: −0.2%
[9]
  Degradation of IMS after 2 weeks at 54° C.: −93.2%
  Degradation of IMS after 4 weeks at 40° C.: −34.9%
[10]
  Degradation of IMS after 2 weeks at 54° C.: −37.8%
  Degradation of IMS after 4 weeks at 40° C.: −7.2%
[11]
  Degradation of IMS after 2 weeks at 54° C.: −87.4%
  Degradation of IMS after 4 weeks at 40° C.: −51.6%
  Degradation of IMS after 8 weeks at 40° C0: −77.2%
  Degradation of IMS after 12 weeks at 35° C.: −66.8%
[12]
  Degradation of IMS after 2 weeks at 54° C.: −45.8%
  Degradation of IMS after 4 weeks at 40° C.: −14.8%
  Degradation of IMS after 8 weeks at 40° C0: −21%
  Degradation of IMS after 12 weeks at 35° C.: −13.6%
[13]
  Degradation of IMS after 2 weeks at 54° C.: −81.8%
  Degradation of IMS after 4 weeks at 40° C.: −32.9%
[14]
  Degradation of IMS after 2 weeks at 54° C.: −32.7%
  Degradation of IMS after 4 weeks at 40° C.: −3.2%
[15]
  Degradation of IMS after 1 week at 54° C.: −42.4%
  Degradation of IMS after 4 weeks at 40° C.: −76.6%
  Degradation of IMS after 8 weeks at 40° C.: −65.9%
  Degradation of IMS after 12 weeks at 35° C.: −55.7%
[16]
  Degradation of IMS after 1 week at 54° C.: −11.8%
  Degradation of IMS after 4 weeks at 40° C.: −3.6%
  Degradation of IMS after 8 weeks at 40° C.: −4.7%
  Degradation of IMS after 12 weeks at 35° C.: −5.3%
[17]
  Degradation of IMS after 2 weeks at 54° C.: −66.6%
  Degradation of IMS after 4 weeks at 40° C.: −65%
[18]
  Degradation of IMS after 2 weeks at 54° C.: −9.86%
  Degradation of IMS after 4 weeks at 40° C.: −5.6%
[19]
  Degradation of IMS after 1 week at 54° C.: −75.8%
  Degradation of IMS after 4 weeks at 40° C.: −39.6%
  Degradation of IMS after 8 weeks at 40° C.: −63.6%
  Degradation of IMS after 12 weeks at 35° C.: −54.6%
[20]
  Degradation of IMS after 1 week at 54° C.: −11.4%
  Degradation of IMS after 4 weeks at 40° C.: −2.3%
  Degradation of IMS after 8 weeks at 40° C.: −3%
  Degradation of IMS after 12 weeks at 35° C.: −3%

Reference: patent US10194663B2, “Chemical stabilization of iodosulfuron-methyl sodium salt by hydroxystearates” (BAYER CROPSCIENCE AG, priority 2012, dated 2019)
